Laboratory results reported in US20230190611A1, “PERSONAL CARE COMPOSITIONS COMPRISING A METAL PIROCTONE COMPLEX” (Conopco, Inc., d/b/a UNILEVER, priority 2020, published 2023).

Legend:
[1] = Solubility of metal piroctone complexes in 5 wt% aqueous SLES 1EO solution; type: physicochemical; conditions: 1% sample in 5 wt% aqueous solution of SLES 1EO at 20° C.
Method: The solubility of metal piroctone complexes at 20° C. in a 5 wt% aqueous solution of SLES 1EO (sodium lauryl ether sulfate) Is listed in Table 1: […]

[2] = UV stability of ethanolic solutions; type: physicochemical; conditions: 5 hours of UV irradiation (UVA 180 uW/cm2, UVB210 uW/cm2)
Method: The UV stability of an ethanolic solutions (0.5 mM) of copper piroctone and manganese piroctone were measured and compared with a solution of Octopirox 1 mM solution.

% Solubility [1] [%] | degraded after UV irradiation ([2]; ethanolic solution 0.5 mM) [%] | degraded after UV irradiation ([2]; 1 mM solution) [%] | SMILES
1.3 | 1.8 | – | Cc1cc(CC(C)CC(C)(C)C)n([O-])c(=O)c1.Cc1cc(CC(C)CC(C)(C)C)n([O-])c(=O)c1.[Cu+2] (stereo not shown) [1% Cu—PIR, Copper bis-piroctone]
1.0 | 3.2 | – | Cc1cc(CC(C)CC(C)(C)C)n([O-])c(=O)c1.Cc1cc(CC(C)CC(C)(C)C)n([O-])c(=O)c1.[Mn+2] (stereo not shown) [1% Mn—PIR, Manganese bis-piroctone]
100.2 | – | 46 | Cc1cc(CC(C)CC(C)(C)C)n(O)c(=O)c1.NCCO (stereo not shown) [1% OCT, piroctone olamine, reference compound]
111.8 | – | – | Cc1cc(CC(C)CC(C)(C)C)n([O-])c(=O)c1.Cc1cc(CC(C)CC(C)(C)C)n([O-])c(=O)c1.[Zn+2] (stereo not shown) [1% Zn—PIR, Zinc bis-piroctone, reference compound]
